The source of these data is ChEMBL document CHEMBL1157360, “Characterization of an integron carrying blaIMP-1 and a new aminoglycoside resistance gene, aac(6')-31, and its dissemination among genetically unrelated clinical isolates in a Brazilian hospital” (2007).

One may read the MIC as the lowest concentration that inhibits growth of the organism.

Holding throughout (assay type): functional
For assay [1], the system named is Acinetobacter baumannii. Briefly: Antimicrobial activity against Acinetobacter baumannii 694 isolate harboring bla IMP-1 carrying integron In86 containing aminoglycoside resistance gene aac(6')-3.
Assay [2] concerns Acinetobacter baumannii. Description: Antimicrobial activity against Acinetobacter baumannii 9043 isolate harboring bla IMP-1 carrying integron In86 containing aminoglycoside resistance gene aac(6')-3.
Assay [3] concerns Acinetobacter baumannii. Briefly: Antimicrobial activity against Acinetobacter baumannii 696 isolate harboring bla IMP-1 carrying integron In86 containing aminoglycoside resistance gene aac(6')-3.
Assay [4] has as its system Acinetobacter sp. Description: Antimicrobial activity against Acinetobacter sp. 5227 isolate harboring bla IMP-1 carrying integron In86 containing aminoglycoside resistance gene aac(6')-3.
The test system of assay [5] is Acinetobacter sp. Description: Antimicrobial activity against Acinetobacter sp. 5248 isolate harboring bla IMP-1 carrying integron In86 containing aminoglycoside resistance gene aac(6')-3.
For assay [6], the system named is Acinetobacter baumannii. Description: Antimicrobial activity against Acinetobacter baumannii 501 isolate harboring bla IMP-1 carrying integron In86 containing aminoglycoside resistance gene aac(6')-3.
The next assay relates to Pseudomonas putida. Briefly: Antimicrobial activity against Pseudomonas putida 12346 isolate harboring bla IMP-1 carrying integron In86 containing aminoglycoside resistance gene aac(6')-3.
The test system of assay [7] is Acinetobacter baumannii. Description: Antimicrobial activity against Acinetobacter baumannii 695 isolate harboring bla IMP-1 carrying integron In86 containing aminoglycoside resistance gene aac(6')-3.
Assay [8] concerns Escherichia coli. Briefly: Antimicrobial activity against Escherichia coli DH5alpha harboring recombinant pIMPAR31.
The test system of assay [9] is Escherichia coli. Briefly: Antimicrobial activity against Escherichia coli DH5alpha.

≈ marks a conversion by molar mass, not a printed value.

As for `CO/N=C(\C(=O)N[C@@H]1C(=O)N2C(C(=O)[O-])=C(C[N+]3(C)CCCC3)CS[C@H]12)c1csc(N)n1`, the MIC against Acinetobacter baumannii [1], against Acinetobacter baumannii [2], against Acinetobacter baumannii [3], against Acinetobacter sp. [4], against Acinetobacter sp. [5] and with Acinetobacter baumannii [6] was above 16 µg/mL each time. Further, the minimum inhibitory concentration (MIC) against Pseudomonas putida and in the assay with Acinetobacter baumannii [7] was above 16 µg/mL each time.

As to `NCC[C@H](O)C(=O)N[C@@H]1C[C@H](N)[C@@H](O[C@H]2O[C@H](CN)[C@@H](O)[C@H](O)[C@H]2O)[C@H](O)[C@H]1O[C@H]1O[C@H](CO)[C@@H](O)[C@H](N)[C@H]1O` [AMIKACIN], the MIC was above 32 µg/mL with Acinetobacter baumannii [1]; above 32 µg/mL against Acinetobacter baumannii [2]; 8 µg/mL with Escherichia coli [8]; above 32 µg/mL against Acinetobacter baumannii [3]; above 32 µg/mL in the assay with Acinetobacter sp. [4]; 32 µg/mL (≈ 54.6 µM) in the assay with Acinetobacter sp. [5]. For the same compound, the minimal inhibitory concentration (MIC) in the assay on Acinetobacter baumannii [6] was 32 µg/mL (≈ 54.6 µM); in the assay on Escherichia coli [9], 0.5 µg/mL (≈ 0.854 µM); against Pseudomonas putida, above 32 µg/mL; in the assay on Acinetobacter baumannii [7], 32 µg/mL (≈ 54.6 µM).

For `CC1(C)S[C@@H]2[C@H](NC(=O)[C@H](N)c3ccccc3)C(=O)N2[C@H]1C(=O)O` [AMPICILLIN], the MIC with Acinetobacter baumannii [1], in the assay with Acinetobacter baumannii [2], against Acinetobacter baumannii [3], in the assay on Acinetobacter sp. [4], in the assay on Acinetobacter sp. [5] and against Acinetobacter baumannii [6] was above 16 µg/mL each time. Besides, the minimum inhibitory concentration (MIC) in the assay with Pseudomonas putida and with Acinetobacter baumannii [7] was above 16 µg/mL throughout.

Consider `C[C@H]1[C@H](NC(=O)/C(=N\OC(C)(C)C(=O)O)c2csc(N)n2)C(=O)N1S(=O)(=O)O` [AZTREONAM], for which the minimal inhibitory concentration (MIC) with Acinetobacter baumannii [1], in the assay with Acinetobacter baumannii [2], against Acinetobacter baumannii [3], against Acinetobacter sp. [4], against Acinetobacter sp. [5] and in the assay with Acinetobacter baumannii [6] was above 16 µg/mL each time. In addition, the MIC against Pseudomonas putida and against Acinetobacter baumannii [7] was above 16 µg/mL each time.

Turning to `CC(C)(O/N=C(\C(=O)N[C@@H]1C(=O)N2C(C(=O)[O-])=C(C[n+]3ccccc3)CS[C@H]12)c1csc(N)n1)C(=O)O` [CEFTAZIDIME], the MIC in the assay with Acinetobacter baumannii [1], in the assay with Acinetobacter baumannii [2], with Acinetobacter baumannii [3], in the assay with Acinetobacter sp. [4], in the assay with Acinetobacter sp. [5] and with Acinetobacter baumannii [6] was above 16 µg/mL each time. Further, the MIC in the assay on Pseudomonas putida and against Acinetobacter baumannii [7] was above 16 µg/mL in each case.

Take `O=C(O)c1cn(C2CC2)c2cc(N3CCNCC3)c(F)cc2c1=O` [CIPROFLOXACIN]: the MIC was 1 µg/mL (≈ 3.02 µM) against Acinetobacter baumannii [1]; above 2 µg/mL in the assay with Acinetobacter baumannii [2]; 0.5 µg/mL (≈ 1.51 µM) against Acinetobacter baumannii [3]; 2 µg/mL (≈ 6.04 µM) against Acinetobacter sp. [4]; above 4 µg/mL in the assay with Acinetobacter sp. [5]; 0.12 µg/mL (≈ 0.362 µM) in the assay on Acinetobacter baumannii [6]. The MIC against Pseudomonas putida is above 2 µg/mL; against Acinetobacter baumannii [7], above 4 µg/mL.

As for `COc1c(N2CCNC(C)C2)c(F)cc2c(=O)c(C(=O)O)cn(C3CC3)c12` (stereo not drawn) [GATIFLOXACIN], the MIC with Acinetobacter baumannii [1] was 0.25 µg/mL (≈ 0.666 µM); with Acinetobacter baumannii [2] it was above 4 µg/mL; in the assay on Acinetobacter baumannii [3], 0.06 µg/mL (≈ 0.16 µM); in the assay with Acinetobacter sp. [4], 1 µg/mL (≈ 2.66 µM); with Acinetobacter sp. [5], 4 µg/mL (≈ 10.7 µM); with Acinetobacter baumannii [6], 0.12 µg/mL (≈ 0.32 µM). Moreover, the MIC against Pseudomonas putida was above 4 µg/mL; in the assay with Acinetobacter baumannii [7], 4 µg/mL (≈ 10.7 µM).

Take `C[C@@H](O)[C@H]1C(=O)N2C(C(=O)O)=C(SCCNC=N)C[C@H]12` [IMIPENEM ANHYDROUS]: the MIC against Acinetobacter baumannii [1], in the assay with Acinetobacter baumannii [2], with Acinetobacter baumannii [3], with Acinetobacter sp. [4], in the assay on Acinetobacter sp. [5] and in the assay on Acinetobacter baumannii [6] was above 8 µg/mL throughout. Also, the minimal inhibitory concentration (MIC) in the assay with Pseudomonas putida and against Acinetobacter baumannii [7] was above 8 µg/mL in each case.

Turning to `CN[C@@H]1[C@@H](O)[C@@H](O[C@@H]2[C@@H](O)[C@H](O[C@H]3O[C@H](CN)[C@@H](O)[C@H](O)[C@H]3O)[C@@H](N)C[C@H]2NC(=O)[C@@H](O)CN)OC[C@]1(C)O` [ISEPAMICIN], the figures for the MIC with Escherichia coli [8] and in the assay on Escherichia coli [9] were 4 µg/mL and 0.12 µg/mL (≈ 0.211 µM), respectively.

As to `NC[C@H]1O[C@H](O[C@H]2[C@H](O)[C@@H](O[C@H]3O[C@H](CO)[C@@H](O)[C@H](N)[C@H]3O)[C@H](N)C[C@@H]2N)[C@H](O)[C@@H](O)[C@@H]1O` [KANAMYCIN], the MIC in the assay on Escherichia coli [9] amounted to 0.5 µg/mL (≈ 1.03 µM).

In the case of `C[C@H]1COc2c(N3CCN(C)CC3)c(F)cc3c(=O)c(C(=O)O)cn1c23.C[C@H]1COc2c(N3CCN(C)CC3)c(F)cc3c(=O)c(C(=O)O)cn1c23.O` [LEVOFLOXACIN], the minimum inhibitory concentration (MIC) in the assay on Acinetobacter baumannii [1] was 0.25 µg/mL; with Acinetobacter baumannii [2], above 4 µg/mL; against Acinetobacter baumannii [3], 0.25 µg/mL; in the assay on Acinetobacter sp. [4] it was 2 µg/mL; with Acinetobacter sp. [5], 4 µg/mL; against Acinetobacter baumannii [6] it was 0.25 µg/mL. Also, the minimal inhibitory concentration (MIC) against Pseudomonas putida and in the assay on Acinetobacter baumannii [7] was above 4 µg/mL throughout.

As to `C[C@@H](O)[C@H]1C(=O)N2C(C(=O)O)=C(S[C@@H]3CN[C@H](C(=O)N(C)C)C3)[C@H](C)[C@H]12` [MEROPENEM], the minimum inhibitory concentration (MIC) with Acinetobacter baumannii [1], in the assay with Acinetobacter baumannii [2], with Acinetobacter baumannii [3], with Acinetobacter sp. [4], against Acinetobacter sp. [5] and against Acinetobacter baumannii [6] was above 8 µg/mL in each case. The MIC against Pseudomonas putida and against Acinetobacter baumannii [7] was above 8 µg/mL throughout.

Turning to `CCN[C@@H]1C[C@H](N)[C@@H](O[C@H]2OC(CN)=CC[C@H]2N)[C@H](O)[C@H]1O[C@H]1OC[C@](C)(O)[C@H](NC)[C@H]1O` [NETILMICIN], the MIC in the assay with Acinetobacter baumannii [1] was 32 µg/mL (≈ 67.3 µM); with Acinetobacter baumannii [2], above 32 µg/mL; in the assay on Escherichia coli [8] it was 4 µg/mL; against Acinetobacter baumannii [3], 32 µg/mL (≈ 67.3 µM); with Acinetobacter sp. [4], above 32 µg/mL; in the assay with Acinetobacter sp. [5], 16 µg/mL (≈ 33.6 µM). Further, the MIC in the assay on Acinetobacter baumannii [6] was above 32 µg/mL; in the assay on Escherichia coli [9] it was 0.5 µg/mL (≈ 1.05 µM); with Pseudomonas putida, above 32 µg/mL; in the assay with Acinetobacter baumannii [7], 8 µg/mL (≈ 16.8 µM).

For the compound `CCN1CCN(C(=O)N[C@@H](C(=O)N[C@@H]2C(=O)N3[C@@H]2SC(C)(C)[C@@H]3C(=O)O)c2ccccc2)C(=O)C1=O` [PIPERACILLIN], the minimum inhibitory concentration (MIC) in the assay on Acinetobacter baumannii [1] is above 128 µg/mL; against Acinetobacter baumannii [2] it was above 128 µg/mL; in the assay on Acinetobacter baumannii [3], above 128 µg/mL; in the assay on Acinetobacter sp. [4], above 128 µg/mL; against Acinetobacter sp. [5] it was above 128 µg/mL; with Acinetobacter baumannii [6], 32 µg/mL (≈ 61.8 µM). Besides, the minimal inhibitory concentration (MIC) with Pseudomonas putida was 64 µg/mL (≈ 124 µM); against Acinetobacter baumannii [7] it was 128 µg/mL (≈ 247 µM).

Consider `CN[C@@H]1[C@@H](O)[C@@H](O[C@@H]2[C@@H](O)[C@H](O[C@H]3OC(CN)=CC[C@H]3N)[C@@H](N)C[C@H]2N)OC[C@]1(C)O` [SISOMICIN], for which the MIC in the assay with Escherichia coli [8] was 8 µg/mL; against Escherichia coli [9], at most 0.25 µg/mL.

Turning to `CC1(C)S[C@@H]2[C@H](NC(=O)[C@H](C(=O)O)c3ccsc3)C(=O)N2[C@H]1C(=O)O` [TICARCILLIN], the MIC against Acinetobacter baumannii [1], against Acinetobacter baumannii [2], in the assay on Acinetobacter baumannii [3], in the assay with Acinetobacter sp. [4], with Acinetobacter sp. [5] and with Acinetobacter baumannii [6] was above 128 µg/mL each time. For the same compound, the minimum inhibitory concentration (MIC) against Pseudomonas putida and in the assay with Acinetobacter baumannii [7] was above 128 µg/mL throughout.

Take `NC[C@H]1O[C@H](O[C@H]2[C@H](O)[C@@H](O[C@H]3O[C@H](CO)[C@@H](O)[C@H](N)[C@H]3O)[C@H](N)C[C@@H]2N)[C@H](N)C[C@@H]1O` [TOBRAMYCIN]: the minimal inhibitory concentration (MIC) in the assay with Acinetobacter baumannii [1] came out at 16 µg/mL (≈ 34.2 µM); with Acinetobacter baumannii [2] it was 16 µg/mL (≈ 34.2 µM); with Escherichia coli [8], 4 µg/mL; with Acinetobacter baumannii [3], 16 µg/mL (≈ 34.2 µM); in the assay with Acinetobacter sp. [4], 16 µg/mL (≈ 34.2 µM); against Acinetobacter sp. [5], 8 µg/mL (≈ 17.1 µM). Moreover, the minimum inhibitory concentration (MIC) in the assay with Acinetobacter baumannii [6] is above 16 µg/mL; with Escherichia coli [9] it was 0.25 µg/mL (≈ 0.535 µM); in the assay on Pseudomonas putida it was above 16 µg/mL; against Acinetobacter baumannii [7] it was above 16 µg/mL.
